The text below walks through data of PMC6272426, “LC-ESI-MS/MS Analysis and Pharmacokinetics of GP205, an Innovative Potent Macrocyclic Inhibitor of Hepatitis C Virus NS3/4A Protease in Rats” (Molecules, 2015).

Read-outs that look alike come from different tables or passages of the source.

Details of data set [1]: method as in PMID 15732092. The settings on record: rhesus monkeys; cited from earlier work.
The target of data set [2] is NS3 enzyme, genotype 1b HCV (HCV NS3/4A protease) (Hepatitis C virus genotype 1b, UniProt Q9WMX2). Description: biochemical.
Data set [3] is described as follows: in vivo. The settings on record: Sprague-Dawley, rat.
Experimental: (§1) The method developed above was applied to a pharmacokinetic study of GP205 to SD rats after single oral doses at 2.5, 5 and 10 mg/kg and an intravenous injection dose at 1 mg/kg.
(§2) Twenty four SD rats (12 males and 12 females), weighing 210 ± 8 g (mean ± SD) were fed with certified standard diet and tap water ad libitum. Temperature and humidity were regulated at 21–23 °C and 30%–60%, respectively. A light/dark cycle of 12 h on/12 h off was established. After 1 week of acclimatization, they were randomly divided into 4 groups (3 males and 3 females for each group). After fasted overnight, three groups of them received oral administration of GP205 at three dosages 2.5 mg/kg, 5 mg/kg, 10 mg/kg dissolved in mixed solvent (5% DMSO, 40% PEG-400, 55% physiological saline), respectively. The other group of them received an intravenous injection of GP205 at 1 mg/kg. […] Blood samples (100 μL) were collected into heparinized tubes before administration and at 0.083, 0.17, 0.33, 0.5, 1, 2, 3, 4, 6, 8, 12, 24, 36, 48 h after oral administration or before administration and at 0, 0.083, 0.17, 0.33, 0.5, 1, 2, 3, 4, 6, 8, 12, 24, 36 , 48 h after intravenous administration. The plasma was separated from heparinized blood by centrifugation at 3500 rpm for 10 min and stored at −80 °C prior to analysis.
The conditions of data set [4]: Sprague-Dawley, rat.
The conditions of data set [5]: Sprague-Dawley, rat, in vivo, po.
Experimental: as §1, §2
The conditions of data set [6]: both, Sprague-Dawley, rat, in vivo, iv, 1 mg/kg.
Experimental: as §1, §2
Data set [7] is described as follows: in vivo. The settings on record: both, Sprague-Dawley, rat, iv, 1 mg/kg.
Experimental: as §1, §2
Data set [8] is classed as physicochemical. The following applies: Stock solution. On the procedure:
[table] Stock solutions of GP205 were prepared by dissolving an accurately weighed amount of reference standard in methanol to yield a final concentration of 1 mg/mL. The solutions were sonicated for 5 min to ensure complete dissolution. Then the solutions were allowed to equilibrate to room temperature and diluted to volume with methanol. Working standard solutions of GP205 in the concentration range of 20–50,000 ng/mL were prepared from individual aliquots of 1 mg/mL solution using methanol–water (95:5, v/v) as the diluent. The stock standard solution of IS was prepared by dissolving appropriate amount of paclitaxel in methanol at the concentration of 1 mg/mL. A 1 μg/mL IS working solution was obtained by diluting the stock solution of paclitaxel with methanol–water (95:5, v/v). All the solutions were stored at 4 °C and brought to room temperature before use. Calibration standards were prepared daily by spiking 5 μL of the appropriate standard solutions to 45 μL of the blank SD rat plasma. Plasma concentrations were 2, 5, 10, 50, 100, 200, 500, 2000 and 5000 ng/mL for GP205. QC samples, which were used in the validation and during the pharmacokinetics study, were prepared from different sources by independent dilution at three levels (5, 100, 4000 ng/mL) for GP205. QC samples were aliquoted into 1.5 mL non-sterile Eppendorf tubes and stored at −80 °C until analysis.

Details of data set [9]: method as in PMID 24900304. The following applies: comparison value for MK-1220; cited from earlier work.
Setting [10] is: 4 °C for 40 days, nominal 5 ng/mL.
Setting [11] is: 4 °C for 40 days, nominal 100 ng/mL.
[12] abbreviates: 4 °C for 40 days, nominal 4000 ng/mL.
The mark [13] stands for this setting: 25 °C for 24 h, nominal 5 ng/mL.
Setting [14] is: 25 °C for 24 h, nominal 100 ng/mL.
The mark [15] stands for this setting: 25 °C for 24 h, nominal 4000 ng/mL.

Chain of NS3 enzyme, genotype 1b HCV (HCV NS3/4A protease) (Q9WMX2 1027-1657): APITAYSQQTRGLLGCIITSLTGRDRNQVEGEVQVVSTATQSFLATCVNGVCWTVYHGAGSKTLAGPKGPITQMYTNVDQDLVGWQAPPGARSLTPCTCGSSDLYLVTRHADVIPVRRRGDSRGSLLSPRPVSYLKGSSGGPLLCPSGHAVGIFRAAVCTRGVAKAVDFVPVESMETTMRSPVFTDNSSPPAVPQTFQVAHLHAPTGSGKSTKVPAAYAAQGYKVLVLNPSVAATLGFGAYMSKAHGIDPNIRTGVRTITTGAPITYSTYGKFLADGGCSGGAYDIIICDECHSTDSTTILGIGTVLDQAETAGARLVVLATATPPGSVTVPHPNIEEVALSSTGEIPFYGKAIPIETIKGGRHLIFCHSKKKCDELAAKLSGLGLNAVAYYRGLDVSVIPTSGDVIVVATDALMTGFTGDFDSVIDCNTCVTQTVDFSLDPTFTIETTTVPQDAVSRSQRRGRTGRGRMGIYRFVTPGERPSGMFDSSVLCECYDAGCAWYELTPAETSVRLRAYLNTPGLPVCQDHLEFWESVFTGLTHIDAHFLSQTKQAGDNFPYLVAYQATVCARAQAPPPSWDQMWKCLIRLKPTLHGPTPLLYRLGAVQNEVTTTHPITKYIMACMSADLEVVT
Chain of NS3 enzyme, genotype 1b HCV (HCV NS3/4A protease) (Q9WMX2 1658-1711): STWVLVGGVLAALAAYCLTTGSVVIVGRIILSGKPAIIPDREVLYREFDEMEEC

Take `COc1ccc2c(O[C@@H]3C[C@H]4C(=O)N[C@]5(C(=O)O)C[C@H]5/C=C\CCCCC[C@H](NC(=O)OC5CCCC5)C(=O)N4C3)cc(-c3csc(NC(C)C)n3)nc2c1` [BILN-2061]: the Cardiotoxicity finding result in data set [1] is listed as “cardiotoxocity identified in rhesus monkeys”.

A word on the IC50: it is the concentration at which inhibition is half-maximal. In [2], `CCC[C@H](NC(=O)[C@@H]1[C@H]2CCC[C@H]2CN1C(=O)[C@@H](NC(=O)[C@@H](NC(=O)c1cnccn1)C1CCCCC1)C(C)(C)C)C(=O)C(=O)NC1CC1` [telaprevir] had a half-inhibitory concentration (IC50) of 95 nM.

By bioavailability is commonly meant the share of a dose that reaches the circulation, judged against a reference dose that is usually intravenous. Read a low bioavailability as poor availability. As usually defined, the AUC is the area under the concentration-time curve, a measure of exposure. As usually defined, the AUC(0-inf) is the area under the concentration-time curve extrapolated to infinity. The low end stands for low exposure, the high end for high exposure. The Cmax is the maximum level reached in the sampled fluid or tissue. Broadly, the MRT is a mean duration of stay, worked out from the concentration-time curve. Broadly, the Tmax is the time from dosing to the highest level. For orientation: half-life means how long it takes for the measured level to halve. Low readings indicate rapid decline, high ones slow decline. Broadly, the clearance is the rate of elimination divided by the concentration. The low end stands for a low capacity for elimination, the high end for a high capacity for elimination. `C=C[C@@H]1C[C@]1(NC(=O)[C@@H]1C[C@@H]2CN1C(=O)[C@H](C1CCCCC1)NC(=O)[C@@H](NC(=O)OC(C)(C)C)COC/C=C/c1cc3c(nccc3cc1OC)O2)C(=O)NS(=O)(=O)C1CC1` [GP205, potassium tert-butyl N-[(3R,5S,8S,11S,15E)-8-cyclohexyl-5-{[(1R,2S)-1-[(cyclo-propanesulfonyl)carbamoyl]-2-ethenylcyclopropyl]carbamoyl}-18-methoxy-7,10-dioxo-2,13-dioxa-6,9,23-triazatetracyclo[15.6.2.13,6.020,24]hexacosa-1(23),15,17(25),18,20(24),21-hexaen-11-yl] carbamate monohydrate]: in “in vivo [3]” (po, 2.5 mg/kg), the concentration at 1 h is 716 ng/mL. Further, the bioavailability in “in vivo [3]” (both) was found to be 34%. The AUC in “in vivo [3]” (both, po, 2.5 mg/kg) stood at 64300 ng·h/mL; in the data set “in vivo [3]” (both, po, 5 mg/kg), 122000 ng·h/mL; in the data set “in vivo [3]” (both, po, 10 mg/kg), 176000 ng·h/mL; in “in vivo [7]” it was 66600 ng·h/mL. The AUC(0-inf) in the data set “in vivo [3]” (both, po, 2.5 mg/kg) was 70100 ng·h/mL; in the data set “in vivo [3]” (both, po, 5 mg/kg), 135000 ng·h/mL; in “in vivo [3]” (both, po, 10 mg/kg), 205000 ng·h/mL; in the data set “in vivo [7]”, 75200 ng·h/mL. For the same compound, the Cmax in “in vivo [3]” (both, po, 2.5 mg/kg) came out at 4260 ± 400 ng/mL; in “in vivo [3]” (both, po, 5 mg/kg), 6780 ± 750 ng/mL; in “in vivo [3]” (both, po, 10 mg/kg) it was 9410 ± 583 ng/mL. In addition, the mean residence time MRT in the data set “in vivo [3]” (both, po, 2.5 mg/kg) is 19.4 ± 3.22 h; in “in vivo [3]” (both, po, 5 mg/kg), 22.2 ± 2.18 h; in the data set “in vivo [3]” (both, po, 10 mg/kg) it was 25.6 ± 3.48 h; in the data set “in vivo [7]” it was 20.8 ± 3.41 h. In addition, the Tmax in the data set “in vivo [3]” (both, po, 2.5 mg/kg) was determined as 6.3 ± 0.8 h; in the data set “in vivo [3]” (both, po, 5 mg/kg) it was 6.3 ± 1.5 h; in “in vivo [3]” (both, po, 10 mg/kg) it was 6.3 ± 0.8 h. For the same compound, the half-life in the data set “in vivo [3]” (both, po, 2.5 mg/kg, t1/2) was 12.4 ± 1.51 h; in “in vivo [3]” (both, po, 5 mg/kg, t1/2) it was 13.9 ± 1.48 h; in “in vivo [3]” (both, po, 10 mg/kg, Elimination half time (t1/2)), 12.4 to 17.2 h; in “in vivo [3]” (both, po, 10 mg/kg, t1/2) it was 17.2 ± 2.73 h; in the data set “in vivo [7]”, 16.3 ± 2.99 h. For the same compound, the IC50 in [2] came to 4 nM. The Accuracy in [4] (5 ng/mL) is given as −5.5%; in data set [4] (100 ng/mL) it was −5.1%; in [4] (4000 ng/mL), −1.9%; in data set [4] (4 h, 5 ng/mL), −3.3%; in [4] (4 h, 100 ng/mL), −1.6%; in [4] (4 h, 4000 ng/mL) it was −2.9%. For the same compound, the Accuracy in [4] (24 h, 5 ng/mL) is listed as −4.2%; in data set [4] (24 h, 100 ng/mL) it was −3.9%; in data set [4] (24 h, 4000 ng/mL), −2.4%; in data set [4] (40 days, 5 ng/mL) it was −7.7%; in data set [4] (40 days, 100 ng/mL), −7.2%; in data set [4] (40 days, 4000 ng/mL), −4.7%. For the same compound, the Accuracy in data set [8] (setting [10]) is reported as 2.8%; in data set [8] (setting [11]) it was 0.6%; in [8] (setting [12]) it was −0.2%; in [8] (setting [13]), 1.8%; in data set [8] (setting [14]), 3.3%; in data set [8] (setting [15]), −0.3%. Moreover, the “Measured Conc.” value in data set [4] (5 ng/mL) is recorded as 4.73 ng/mL; in data set [4] (100 ng/mL), 94.90 ng/mL; in data set [4] (4000 ng/mL), 3925.86 ng/mL; in data set [4] (4 h, 5 ng/mL) it was 4.84 ng/mL; in data set [4] (4 h, 100 ng/mL), 98.39 ng/mL; in [4] (4 h, 4000 ng/mL), 3884.71 ng/mL. Also, the “Measured Conc.” value is 4.79 ng/mL in data set [4] (24 h, 5 ng/mL); 96.13 ng/mL in data set [4] (24 h, 100 ng/mL); 3904.44 ng/mL in [4] (24 h, 4000 ng/mL); 4.61 ng/mL in data set [4] (40 days, 5 ng/mL); 92.84 ng/mL in [4] (40 days, 100 ng/mL); 3812.43 ng/mL in data set [4] (40 days, 4000 ng/mL). For the same compound, the “Measured Conc.” value in data set [8] (setting [10]) is reported as 5.14 ng/mL; in data set [8] (setting [11]), 100.63 ng/mL; in data set [8] (setting [12]), 3992.75 ng/mL; in [8] (setting [13]), 5.09 ng/mL; in data set [8] (setting [14]) it was 103.26 ng/mL; in data set [8] (setting [15]) it was 3987.91 ng/mL. Moreover, the “AUC relative to MK-1220 (fold higher)” value in data set [5] is about 11 fold. Also, the “Cmax relative to MK-1220 (fold higher)” value in data set [5] is “about 2 fold”. Also, the “Time of maximum plasma drug concentration” value in [5] (both) is recorded as “about 6 h”. In [6], this compound yielded a VD of 0.31 ± 0.12 L. The same compound displayed a C0 in “in vivo [7]” of 9510 ± 442 ng/mL. In “in vivo [7]”, the clearance is 0.333 mL/min/kg.

With `C=C[C@@H]1C[C@]1(NC(=O)[C@@H]1C[C@@H]2CN1C(=O)[C@H](C1CCCCC1)NC(=O)OCC(C)(C)CCCc1cc3c(nccc3cc1OC)O2)C(=O)NS(=O)(=O)C1CC1` [MK-1220], the IC50 in data set [2] (NS3 enzyme, genotype 1b HCV, in vitro, read-out: IC50) was 11 nM. The t1/2 result in data set [9] is “about 6 h”.
